Experimental data taken from the supplement of paper PMC10307832.

Columns and labels:
Assay in all cases: relative viability (nuclei count vs DMSO), 5 days (fraction); higher = more cells survive
EKVX = test system: EKVX
Summary of the method: (§1)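 Nuclei were stained with Hoechst during a one-step fixation (final 0.05% Triton X-100, 1% formaldehyde, 1 ug/ml Hoechst) carried out 5 days after dosing, then counted on 4× images. The cells, lung cancer lines in 1536-well plates, had been dosed by pin tool the day after seeding with one drug alone or a fixed anchor-drug dose plus five library-drug doses (not always all listed) in √10 steps. Relative viability is the nuclei count in treated wells divided by that in vehicle wells, and each value is the median of duplicate plates.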

LCLC-97TM1 = test system: LCLC-97TM1
Summary of the method: as §1

NCI-H1437 = test system: NCI-H1437
Summary of the method: as §1

NCI-H1650 = test system: NCI-H1650
Summary of the method: as §1

NCI-H1666 = test system: NCI-H1666
Summary of the method: as §1

NCI-H1792 = test system: NCI-H1792
Summary of the method: as §1

NCI-H1915 = test system: NCI-H1915
Summary of the method: as §1

NCI-H1975 = test system: NCI-H1975
Summary of the method: as §1

NCI-H2342 = test system: NCI-H2342
Summary of the method: as §1

NCI-H23 = test system: NCI-H23
Summary of the method: as §1

NCI-H322M = test system: NCI-H322M
Summary of the method: as §1

NCI-H358 = test system: NCI-H358
Summary of the method: as §1

NCI-H441 = test system: NCI-H441
Summary of the method: as §1

NCI-H460 = test system: NCI-H460
Summary of the method: as §1

NCI-H520 = test system: NCI-H520
Summary of the method: as §1

NCI-H522 = test system: NCI-H522
Summary of the method: as §1

NCI-H596 = test system: NCI-H596
Summary of the method: as §1

NCI-H647 = test system: NCI-H647
Summary of the method: as §1

NCI-H661 = test system: NCI-H661
Summary of the method: as §1

NCI-H727 = test system: NCI-H727
Summary of the method: as §1

NCI-H838 = test system: NCI-H838
Summary of the method: as §1

PC-3 [JPC-3] = test system: PC-3 [JPC-3]
Summary of the method: as §1

SK-LU-1 = test system: SK-LU-1
Summary of the method: as §1

## CN1CCN(CCOc2cc(OC3CCOCC3)c3c(Nc4c(Cl)ccc5c4OCO5)ncnc3c2)CC1 [Saracatinib] + Nc1ncn([C@H]2C[C@H](O)[C@@H](CO)O2)c(=O)n1 [Decitabine] (partner 2 µM)
EKVX; first compound 0.02 µM
  relative viability: 0.346
EKVX; first compound 0.6325 µM
  relative viability: 0.323
EKVX; first compound 2 µM
  relative viability: 0.211
LCLC-97TM1; first compound 0.02 µM
  relative viability: 0.244
LCLC-97TM1; first compound 0.2 µM
  relative viability: 0.18
LCLC-97TM1; first compound 0.6325 µM
  relative viability: 0.215
LCLC-97TM1; first compound 2 µM
  relative viability: 0.178
NCI-H1437; first compound 0.02 µM
  relative viability: 0.608
NCI-H1437; first compound 0.2 µM
  relative viability: 0.601
NCI-H1437; first compound 0.6325 µM
  relative viability: 0.64
NCI-H1437; first compound 2 µM
  relative viability: 0.622
NCI-H1650; first compound 0.02 µM
  relative viability: 0.428
NCI-H1650; first compound 0.2 µM
  relative viability: 0.519
NCI-H1650; first compound 0.6325 µM
  relative viability: 0.431
NCI-H1650; first compound 2 µM
  relative viability: 0.365
NCI-H1666; first compound 0.02 µM
  relative viability: 0.797
NCI-H1666; first compound 0.2 µM
  relative viability: 0.671
NCI-H1666; first compound 0.6325 µM
  relative viability: 0.846
NCI-H1666; first compound 2 µM
  relative viability: 0.756
NCI-H1792; first compound 0.02 µM
  relative viability: 0.597
NCI-H1792; first compound 0.2 µM
  relative viability: 0.464
NCI-H1792; first compound 0.6325 µM
  relative viability: 0.687
NCI-H1792; first compound 2 µM
  relative viability: 0.522
NCI-H1915; first compound 0.02 µM
  relative viability: 0.245
NCI-H1915; first compound 0.2 µM
  relative viability: 0.264
NCI-H1915; first compound 0.6325 µM
  relative viability: 0.255
NCI-H1915; first compound 2 µM
  relative viability: 0.237
NCI-H1975; first compound 0.02 µM
  relative viability: 0.45
NCI-H1975; first compound 0.2 µM
  relative viability: 0.37
NCI-H1975; first compound 0.6325 µM
  relative viability: 0.386
NCI-H1975; first compound 2 µM
  relative viability: 0.338
NCI-H2342; first compound 0.02 µM
  relative viability: 0.791
NCI-H2342; first compound 0.2 µM
  relative viability: 0.677
NCI-H2342; first compound 0.6325 µM
  relative viability: 0.673
NCI-H2342; first compound 2 µM
  relative viability: 0.656
NCI-H23; first compound 0.02 µM
  relative viability: 0.208
NCI-H23; first compound 0.6325 µM
  relative viability: 0.29
NCI-H23; first compound 2 µM
  relative viability: 0.212
NCI-H322M; first compound 0.02 µM
  relative viability: 0.79
NCI-H322M; first compound 0.2 µM
  relative viability: 0.473
NCI-H322M; first compound 0.6325 µM
  relative viability: 0.659
NCI-H322M; first compound 2 µM
  relative viability: 0.409
NCI-H358; first compound 0.02 µM
  relative viability: 0.224
NCI-H358; first compound 0.2 µM
  relative viability: 0.198
NCI-H358; first compound 0.6325 µM
  relative viability: 0.179
NCI-H358; first compound 2 µM
  relative viability: 0.146
NCI-H441; first compound 0.02 µM
  relative viability: 0.221
NCI-H441; first compound 0.2 µM
  relative viability: 0.232
NCI-H441; first compound 0.6325 µM
  relative viability: 0.212
NCI-H441; first compound 2 µM
  relative viability: 0.243
NCI-H460; first compound 0.02 µM
  relative viability: 0.457
NCI-H460; first compound 0.2 µM
  relative viability: 0.242
NCI-H460; first compound 0.6325 µM
  relative viability: 0.423
NCI-H460; first compound 2 µM
  relative viability: 0.32
NCI-H520; first compound 0.02 µM
  relative viability: 0.544
NCI-H520; first compound 0.2 µM
  relative viability: 0.499
NCI-H520; first compound 0.6325 µM
  relative viability: 0.434
NCI-H520; first compound 2 µM
  relative viability: 0.346
NCI-H522; first compound 0.02 µM
  relative viability: 0.737
NCI-H522; first compound 0.2 µM
  relative viability: 0.665
NCI-H522; first compound 0.6325 µM
  relative viability: 0.705
NCI-H522; first compound 2 µM
  relative viability: 0.627
NCI-H596; first compound 0.02 µM
  relative viability: 0.912
NCI-H596; first compound 0.2 µM
  relative viability: 0.793
NCI-H596; first compound 0.6325 µM
  relative viability: 0.951
NCI-H596; first compound 2 µM
  relative viability: 0.821
NCI-H647; first compound 0.02 µM
  relative viability: 0.438
NCI-H647; first compound 0.2 µM
  relative viability: 0.313
NCI-H647; first compound 0.6325 µM
  relative viability: 0.468
NCI-H647; first compound 2 µM
  relative viability: 0.433
NCI-H661; first compound 0.02 µM
  relative viability: 0.563
NCI-H661; first compound 0.2 µM
  relative viability: 0.434
NCI-H661; first compound 0.6325 µM
  relative viability: 0.534
NCI-H661; first compound 2 µM
  relative viability: 0.403
NCI-H727; first compound 0.02 µM
  relative viability: 0.917
NCI-H727; first compound 0.2 µM
  relative viability: 0.894
NCI-H727; first compound 0.6325 µM
  relative viability: 0.992
NCI-H727; first compound 2 µM
  relative viability: 0.712
NCI-H838; first compound 0.02 µM
  relative viability: 0.45
NCI-H838; first compound 0.2 µM
  relative viability: 0.417
NCI-H838; first compound 0.6325 µM
  relative viability: 0.467
NCI-H838; first compound 2 µM
  relative viability: 0.411
PC-3 [JPC-3]; first compound 0.02 µM
  relative viability: 0.824
PC-3 [JPC-3]; first compound 0.2 µM
  relative viability: 0.711
PC-3 [JPC-3]; first compound 0.6325 µM
  relative viability: 0.695
PC-3 [JPC-3]; first compound 2 µM
  relative viability: 0.555
SK-LU-1; first compound 0.02 µM
  relative viability: 0.546
SK-LU-1; first compound 0.2 µM
  relative viability: 0.526
SK-LU-1; first compound 0.6325 µM
  relative viability: 0.594
SK-LU-1; first compound 2 µM
  relative viability: 0.405
